Measured values taken from PubChem BioAssay (NCI).
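Where inhibition never reached the appropriate level, the endpoint shown equals the highest concentration tested. Otherwise, values were interpolated linearly from a five-concentration, 48-hour dose response in 96-well plates. The concentration for 50% growth inhibition is given as GI50. TGI: concentration producing complete growth inhibition.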

Key:
Experiment in all cases: growth of human tumour cells (NCI), 48 h
K-562 leukemia = test system: K-562 leukemia
SK-MEL-2 melanoma = test system: SK-MEL-2 melanoma
A549 NSCLC = test system: A549 NSCLC
MDA-MB-435 = test system: MDA-MB-435
IGROV1 ovarian = test system: IGROV1 ovarian
HCT-116 colon = test system: HCT-116 colon
HOP-62 NSCLC = test system: HOP-62 NSCLC
SF-539 CNS = test system: SF-539 CNS

| SMILES | GI50 (K-562 leukemia) | TGI (K-562 leukemia) | GI50 (SK-MEL-2 melanoma) | TGI (SK-MEL-2 melanoma) | GI50 (A549 NSCLC) | TGI (A549 NSCLC) | GI50 (MDA-MB-435) | TGI (MDA-MB-435) | GI50 (IGROV1 ovarian) | TGI (IGROV1 ovarian) | GI50 (HCT-116 colon) | TGI (HCT-116 colon) | GI50 (HOP-62 NSCLC) | TGI (HOP-62 NSCLC) | GI50 (SF-539 CNS) | TGI (SF-539 CNS) |
| --- | --- | --- | --- | --- | --- | --- | --- | --- | --- | --- | --- | --- | --- | --- | --- | --- |
| Cc1ccc(C2SCc3nc4ccc(C(=O)c5ccccc5)cc4n32)cc1 (configuration not stated) | 3740 nM | > 100 µM | 12100 nM | 47.3 µM | 5990 nM | > 63.3 µM | 2830 nM | 11.4 µM | 13600 nM | > 69 µM | 3990 nM | 41.3 µM | 14800 nM | 39.6 µM | 13400 nM | 32.5 µM |
| O=C(O)c1ccc(-c2ccc(C(=O)O)cc2I)c(I)c1 | > 100000 nM | > 100 µM | > 100000 nM | > 100 µM | > 100000 nM | > 100 µM | > 100000 nM | > 100 µM | > 100000 nM | > 100 µM | > 100000 nM | > 100 µM | > 100000 nM | > 100 µM | > 100000 nM | > 100 µM |
| Cc1c2ncccc2nc2[nH]c3ccc(OCCN(C)C)cc3c12 | 802 nM | 14.6 µM | 3030 nM | 15.1 µM | 1870 nM | 10.3 µM | 3120 nM | 15.7 µM | 2130 nM | 16.5 µM | 552 nM | 12.3 µM | 1730 nM | 13.7 µM | 2580 nM | 13.9 µM |
| COc1ccc(NC(=O)c2sc3nc(C)c(C(O)c4ccc(OC)cc4)cc3c2N)cc1 (configuration not stated) | 509 nM | > 50 µM | 1740 nM | > 50 µM | 258 nM | > 50 µM | 121 nM | 0.387 µM | 1850 nM | > 50 µM | 983 nM | > 50 µM | 2030 nM | > 50 µM | 1020 nM | 4.44 µM |
| BrC(Br)(Br)c1cnc2ccccc2n1 | 1120 nM | 3.55 µM | 2720 nM | 7.4 µM | 1750 nM | 4.66 µM | 2140 nM | 6.29 µM | 2200 nM | 6.8 µM | 1100 nM | 2.66 µM | 2270 nM | 7.9 µM | 2210 nM | 4.86 µM |
| CCn1c(-c2nonc2N)nc2c(C#CC(C)(C)O)nc(O[C@@H](CN)c3ccccc3)cc21 | 122 nM | 4.26 µM | 188 nM | 0.737 µM | 108 nM | 3.7 µM | 365 nM | 2.99 µM | 16.3 nM | 2.86 µM | 121 nM | 2.61 µM | 294 nM | 1.98 µM | 116 nM | 0.874 µM |
| O=C(NCCN1CCOCC1)Nc1ccc(-c2cc3c(Nc4ccc(Oc5cccc(C(F)(F)F)c5)c(Cl)c4)ncnc3s2)cc1 | 706 nM | 3.31 µM | 1250 nM | 2.98 µM | 1040 nM | 2.42 µM | 987 nM | 2 µM | 1640 nM | 6.85 µM | 1490 nM | 5.05 µM | 1460 nM | 5.93 µM | 825 nM | 2.01 µM |
